Test results as given in ChEMBL document CHEMBL1146001, “Thiothalidomides: novel isosteric analogues of thalidomide with enhanced TNF-alpha inhibitory activity” (J Med Chem, 2003).

What was measured:
TNF-alpha (Homo sapiens) [1] = assay: Compound was tested for the inhibition of LPS-induced TNF-alpha production in human peripheral blood mononuclear cells (PBMC)
TNF-alpha (Homo sapiens) [2] = assay: Compound was tested for the inhibition of LPS-induced TNF-alpha production in human peripheral blood mononuclear cells (PBMC) at 30 uM

| IC50 (TNF-alpha (Homo sapiens) [1]) [µM] | SMILES | inhibition at 30 µM (TNF-alpha (Homo sapiens) [2]) [%] |
| --- | --- | --- |
| > 30 | O=C1NC(=S)c2ccccc21 | 34 |
| 16 | O=C1c2ccccc2C(=S)N1C1C=CCCC1 (stereo not drawn) | 85 |
| > 30 | O=C1NC(=S)CCC1N1C(=O)c2ccccc2C1=O (stereo not drawn) | 31 |
| 10 | COC(=O)CCC(C(=O)OC)N1C(=S)c2ccccc2C1=S (stereo not drawn) | 85 |
| 6 | O=C1c2ccccc2C(=S)N1C1CCC(=S)NC1=S (stereo not drawn) | 79 |
| > 30 | O=C1CCC(N2C(=O)c3ccccc3C2=S)C(=O)N1 (stereo not drawn) | 23 |
| 3 | S=C1NC(=S)c2ccccc21 | 95 |
| 15 | S=C1c2ccccc2C(=S)N1C1C=CCCC1 (stereo not drawn) | 86 |
| > 30 | O=C(O)CCC(C(=O)O)N1C(=O)c2ccccc2C1=S (stereo not drawn) | 20 |
| > 30 | O=C1CCCC(=S)N1 | 15 |
| 8 | S=C1CCCC(=S)N1 | 75 |
| 20 | COC(=O)CCC(C(=O)OC)N1C(=O)c2ccccc2C1=S (stereo not drawn) | 56 |
| 20 | O=C1c2ccccc2C(=O)N1C1CCC(=S)NC1=S (stereo not drawn) | 52 |
| 11 | O=C1NC(=S)CCC1N1C(=O)c2ccccc2C1=S (stereo not drawn) | 61 |
